From US12077503B2, “Substituted cyclic amides and their use as herbicides” (FMC CORPORATION, priority 2015, dated 2024)

What was measured:
Assay type in all cases: in vivo
[1] = tested on: barnyardgrass (Echinochloa crus-galli); test: Test A preemergence; details: for Barnyardgrass plant response rating (0 to 100 scale): Preemergence, 0 is no effect, 100 is complete control
Procedure, shortened: (§1)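 In a loam soil and sand blend, planted seeds got a preemergence directed soil spray, and young plants at the one- to two-leaf stage, 2–10 cm high, got a postemergence application; ~10 d greenhouse hold; injury rated visually, 0 = none, 100 = complete control.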

corn (Zea mays) [2] = test: Test A preemergence; details: for Corn plant response rating (0 to 100 scale): Preemergence, 0 is no effect, 100 is complete control
Procedure, shortened: as §1

[3] = tested on: crabgrass, large (Digitaria sanguinalis); test: Test A preemergence; details: for Crabgrass, Large plant response rating (0 to 100 scale): Preemergence, 0 is no effect, 100 is complete control
Procedure, shortened: as §1

[4] = tested on: giant foxtail (Setaria faberii); test: Test A preemergence; details: for Foxtail, Giant plant response rating (0 to 100 scale): Preemergence, 0 is no effect, 100 is complete control
Procedure, shortened: as §1

[5] = tested on: morningglory (Ipomoea spp.); test: Test A preemergence; details: for Morningglory plant response rating (0 to 100 scale): Preemergence, 0 is no effect, 100 is complete control
Procedure, shortened: as §1

[6] = tested on: pigweed (Amaranthus retroflexus); test: Test A preemergence; details: for Pigweed plant response rating (0 to 100 scale): Preemergence, 0 is no effect, 100 is complete control
[7] = tested on: velvetleaf (Abutilon theophrasti); test: Test A preemergence; details: for Velvetleaf plant response rating (0 to 100 scale): Preemergence, 0 is no effect, 100 is complete control
Procedure, shortened: as §1

[8] = tested on: wheat (Triticum aestivum); test: Test A preemergence; details: for Wheat plant response rating (0 to 100 scale): Preemergence, 0 is no effect, 100 is complete control
Procedure, shortened: as §1

[9] = tested on: barnyardgrass (Echinochloa crus-galli); test: Test A postemergence
Procedure, shortened: as §1

corn (Zea mays) [10] = test: Test A postemergence
Procedure, shortened: as §1

[11] = tested on: crabgrass, large (Digitaria sanguinalis); test: Test A postemergence
Procedure, shortened: as §1

[12] = tested on: giant foxtail (Setaria faberii); test: Test A postemergence
Procedure, shortened: as §1

[13] = tested on: morningglory (Ipomoea spp.); test: Test A postemergence
Procedure, shortened: as §1

[14] = tested on: pigweed (Amaranthus retroflexus); test: Test A postemergence
Procedure, shortened: as §1

[15] = tested on: velvetleaf (Abutilon theophrasti); test: Test A postemergence
Procedure, shortened: as §1

[16] = tested on: wheat (Triticum aestivum); test: Test A postemergence
Procedure, shortened: as §1

[17] = tested on: barnyardgrass (Echinochloa crus-galli); test: Test B flooded paddy test; details: Flood, 250 g ai/ha; 0 to 100 scale where 0 is no effect and 100 is complete control; 13 to 15 d
Procedure, shortened: (§2)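 Plants at 2-leaf stage flooded to 3 cm above soil, with compounds applied directly to paddy water and that depth maintained. Plants kept in greenhouse 13–15 d. Visual rating versus controls on a 0 (no effect) to 100 (complete control) scale.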

[18] = tested on: ducksalad (Heteranthera limosa); test: Test B flooded paddy test; details: Flood, 250 g ai/ha; 0 to 100 scale where 0 is no effect and 100 is complete control; 13 to 15 d
Procedure, shortened: as §2

rice (Oryra sativa) = test: Test B flooded paddy test; details: Flood, 250 g ai/ha; 0 to 100 scale where 0 is no effect and 100 is complete control; 13 to 15 d
Procedure, shortened: as §2

[19] = tested on: sedge, umbrella (small-flower umbrella sedge, Cyperus difformis); test: Test B flooded paddy test; details: Flood, 250 g ai/ha; 0 to 100 scale where 0 is no effect and 100 is complete control; 13 to 15 d
Procedure, shortened: as §2

[20] = 1000 g ai/ha, postemergence, 0 to 100 scale, 0 no effect, 100 complete control
[21] = 125 g ai/ha, preemergence, 0 to 100 scale (0 no effect, 100 complete control)
[22] = 500 g ai/ha, postemergence, 0 to 100 scale, 0 no effect, 100 complete control
[23] = Postemergence, 125 g ai/ha, visual injury, 0 to 100 scale (0 no effect, 100 complete control), approx. 10 d

Nc1c(NC(=O)C2C(=O)NCC2c2ccc(F)c(F)c2)ccc(F)c1F (racemic) [Compound 358]
Barnyardgrass plant response rating (0 to 100 scale) ([1]; 1000 g ai/ha): 0 | Corn plant response rating (0 to 100 scale) (corn (Zea mays) [2]; 1000 g ai/ha): 0 | Crabgrass, Large plant response rating (0 to 100 scale) ([3]; 1000 g ai/ha): 50 | Foxtail, Giant plant response rating (0 to 100 scale) ([4]; 1000 g ai/ha): 0 | Morningglory plant response rating (0 to 100 scale) ([5]; 1000 g ai/ha): 0 | Pigweed plant response rating (0 to 100 scale) ([6]; 1000 g ai/ha): 0 | Velvetleaf plant response rating (0 to 100 scale) ([7]; 1000 g ai/ha): 0 | Wheat plant response rating (0 to 100 scale) ([8]; 1000 g ai/ha): 0 | Plant response rating, Barnyardgrass [9, 20]: 0 | Plant response rating, Corn (corn (Zea mays) [10]; [20]): 0 | Plant response rating, Crabgrass, Large [11, 20]: 40 | Plant response rating, Foxtail, Giant [12, 20]: 30 | Plant response rating, Morningglory [13, 20]: 0 | Plant response rating, Pigweed [14, 20]: 0 | Plant response rating, Velvetleaf [15, 20]: 0 | Plant response rating, Wheat [16, 20]: 0

Cn1nccc1NC(=O)C1C(=O)NCC1c1ccc(F)c(F)c1 (racemic) [Compound 362]
Plant response rating, Barnyardgrass [1, 21]: 0 | Barnyardgrass plant response rating (0 to 100 scale) ([1]; 500 g ai/ha): 0 | Plant response rating, Corn (corn (Zea mays) [2]; [21]): 0 | Corn plant response rating (0 to 100 scale) (corn (Zea mays) [2]; 500 g ai/ha): 0 | Plant response rating, Crabgrass, Large [3, 21]: 0 | Crabgrass, Large plant response rating (0 to 100 scale) ([3]; 500 g ai/ha): 0 | Plant response rating, Foxtail, Giant [4, 21]: 0 | Foxtail, Giant plant response rating (0 to 100 scale) ([4]; 500 g ai/ha): 0 | Plant response rating, Morningglory [5, 21]: 0 | Morningglory plant response rating (0 to 100 scale) ([5]; 500 g ai/ha): 0 | Plant response rating, Pigweed [6, 21]: 0 | Pigweed plant response rating (0 to 100 scale) ([6]; 500 g ai/ha): 0 | Plant response rating, Velvetleaf [7, 21]: 0 | Velvetleaf plant response rating (0 to 100 scale) ([7]; 500 g ai/ha): 0 | Plant response rating, Wheat [8, 21]: 0 | Wheat plant response rating (0 to 100 scale) ([8]; 500 g ai/ha): 0 | Plant response rating, Barnyardgrass [9, 22]: 0 | Plant response rating, Barnyardgrass [9, 23]: 0 | Plant response rating, Corn (corn (Zea mays) [10]; [22]): 0 | Plant response rating, Corn (corn (Zea mays) [10]; [23]): 0 | Plant response rating, Crabgrass, Large [11, 22]: 0 | Plant response rating, Crabgrass, Large [11, 23]: 0 | Plant response rating, Foxtail, Giant [12, 22]: 0 | Plant response rating, Foxtail, Giant [12, 23]: 0 | Plant response rating, Morningglory [13, 22]: 0 | Plant response rating, Morningglory [13, 23]: 0 | Plant response rating, Pigweed [14, 22]: 0 | Plant response rating, Pigweed [14, 23]: 0 | Plant response rating, Velvetleaf [15, 22]: 0 | Plant response rating, Velvetleaf [15, 23]: 0 | Plant response rating, Wheat [16, 22]: 0 | Plant response rating, Wheat [16, 23]: 0 | Plant response rating, Barnyardgrass [17]: 0 | Plant response rating, Ducksalad [18]: 0 | Plant response rating, Rice (rice (Oryra sativa)): 0 | Plant response rating, Sedge, Umbrella [19]: 0
